Measurements as given in US20060069132A1, “Azolecarboxamide herbicides” (priority 2004, published 2006).

Experiments:
barnyardgrass = test: Test B pre-/postemergence herbicide test; assay type: in vivo, Echinochloa crus-galli
Method in brief: (§1)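 Species tested were Echinochloa crus-galli, Ipomoea coccinea, Xanthium strumarium and Oryza sativa, treated both before emergence and at the 1- to 4-leaf stage; rice and barnyardgrass were also tested under flooding at 2 leaves. Greenhouse incubation lasted 13–15 days before visual 0–100 scoring.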

Surinam grass = test: Test B pre-/postemergence herbicide test; assay type: in vivo, Urochloa decumbens; conditions: for Surinam Grass plant response rating: postemergence, visual rating
Method in brief: (§2)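 Visual rating, 0 (no effect) to 100 (complete control), versus untreated controls after 13–15 d in greenhouse. Pre- and postemergence applications (postemergence plants 2–18 cm, 1–4 leaves); flooded paddy arm at 2-leaf stage. Compounds in non-phytotoxic solvent plus surfactant.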

cocklebur = test: Test B pre-/postemergence herbicide test; assay type: in vivo, Xanthium strumarium
Method in brief: as §1

corn = test: Test B pre-/postemergence herbicide test; assay type: in vivo, Zea mays
Method in brief: as §2

large crabgrass = test: Test B pre-/postemergence herbicide test; assay type: in vivo, Digitaria sanguinalis
Method in brief: as §2

giant foxtail = test: Test B pre-/postemergence herbicide test; assay type: in vivo, Setaria faberi
Method in brief: as §2

lambsquarters = test: Test B pre-/postemergence herbicide test; assay type: in vivo, Chenopodium album; conditions: for Lambsquarters plant response rating: postemergence, visual rating
Method in brief: as §2

morningglory = test: Test B pre-/postemergence herbicide test; assay type: in vivo, Ipomoea coccinea; conditions: for Morningglory plant response rating: postemergence, visual rating
Method in brief: as §1

pigweed = test: Test B pre-/postemergence herbicide test; assay type: in vivo, Amaranthus retroflexus; conditions: for Pigweed plant response rating: postemergence, visual rating
Method in brief: as §2

velvetleaf = test: Test B pre-/postemergence herbicide test; assay type: in vivo, Abutilon theophrasti; conditions: for Velvetleaf plant response rating: postemergence, visual rating
Method in brief: as §2

blackgrass = test: Test B postemergence herbicide test; assay type: in vivo, Alopecurus myosuroides; conditions: scale 0 (no effect) to 100 (complete control); for Plant response rating, Blackgrass: Postemergence, 500 g ai/ha, visual rating after 13 to 15 days; for Blackgrass plant response rating: postemergence, 125 g ai/ha, visual rating
Method in brief: (§3)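 Plants grow to 1- to 4-leaf stage (2–18 cm) for postemergence spraying, or to 2-leaf stage for the paddy test. Formulated compound is applied. Greenhouse holding lasts 13–15 days. Response is scored visually relative to controls, 0 no effect to 100 complete control; a dash means no result.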

wheat = test: Test B postemergence herbicide test; assay type: in vivo, Triticum aestivum; design: key to Wheat plant response rating: 0 = no effect, 100 = complete control; conditions: scale 0 (no effect) to 100 (complete control); for Plant response rating, Wheat: Postemergence, 500 g ai/ha, visual rating after 13 to 15 days; for Wheat plant response rating: postemergence, 125 g ai/ha, visual rating
Method in brief: (§4)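 Visual ratings, 0 (no effect) to 100 (complete control), made versus controls after 13–15 d greenhouse. Paddy plants treated at 2-leaf stage; postemergence plants at 1- to 4-leaf stage, 2–18 cm tall.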

wild oat = test: Test B postemergence herbicide test; assay type: in vivo, Avena fatua; conditions: scale 0 (no effect) to 100 (complete control); for Plant response rating, Oat, Wild: Postemergence, 500 g ai/ha, visual rating after 13 to 15 days; for Oat, Wild plant response rating: postemergence, 125 g ai/ha, visual rating
Method in brief: as §4

[1] = test system: small flower umbrella sedge; test: Test B flooded paddy test; assay type: in vivo, Cyperus difformis; conditions: 1000 g ai/ha, visual rating, scale 0 to 100 (0 no effect, 100 complete control), 13 to 15 days
Method in brief: as §3

[2] = Postemergence, 500 g ai/ha, visual rating after 13 to 15 days, scale 0 (no effect) to 100 (complete control)
[3] = Preemergence, 500 g ai/ha, scale 0 to 100
[4] = postemergence, 125 g ai/ha, visual rating, scale 0 (no effect) to 100 (complete control)
[5] = preemergence, 125 g ai/ha, 0 to 100 scale, 0 is no effect, 100 is complete control
[6] = 125 g ai/ha, scale 0 (no effect) to 100 (complete control)

SMILES: CCn1nc(C(C)(C)C)cc1C(=O)Nc1cccc(C(=O)NCC2CC2)c1 [Compound 62]
- Plant response rating, Barnyardgrass (barnyardgrass; [2]): 50
- Barnyardgrass plant response rating (barnyardgrass; [3]): 80
- Barnyardgrass plant response rating (barnyardgrass; [4]): 20
- Plant response rating, Barnyardgrass (barnyardgrass; [5]): 20
- Plant response rating, Surinam Grass (Surinam grass; [2]): 70
- Surinam Grass plant response rating (Surinam grass; [6]): 50
- Plant response rating, Surinam Grass (Surinam grass; [5]): 10
- Plant response rating, Cocklebur (cocklebur; [2]): 100
- Cocklebur plant response rating (cocklebur; [3]): 10
- Cocklebur plant response rating (cocklebur; [4]): 70
- Plant response rating, Cocklebur (cocklebur; [5]): 0
- Plant response rating, Corn (corn; [2]): 20
- Corn plant response rating (corn; [3]): 10
- Corn plant response rating (corn; [4]): 10
- Plant response rating, Corn (corn; [5]): 0
- Plant response rating, Crabgrass, Large (large crabgrass; [2]): 20
- Crabgrass, Large plant response rating (large crabgrass; [3]): 100
- Crabgrass, Large plant response rating (large crabgrass; [4]): 10
- Plant response rating, Crabgrass, Large (large crabgrass; [5]): 80
- Plant response rating, Foxtail, Giant (giant foxtail; [2]): 30
- Foxtail, Giant plant response rating (giant foxtail; [3]): 90
- Foxtail, Giant plant response rating (giant foxtail; [4]): 10
- Plant response rating, Foxtail, Giant (giant foxtail; [5]): 70
- Plant response rating, Lambsquarters (lambsquarters; [2]): 90
- Lambsquarters plant response rating (lambsquarters; [6]): 80
- Plant response rating, Lambsquarters (lambsquarters; [5]): 100
- Plant response rating, Morningglory (morningglory; [2]): 60
- Morningglory plant response rating (morningglory; [6]): 20
- Plant response rating, Morningglory (morningglory; [5]): 10
- Plant response rating, Pigweed (pigweed; [2]): 90
- Pigweed plant response rating (pigweed; [6]): 80
- Plant response rating, Pigweed (pigweed; [5]): 100
- Plant response rating, Velvetleaf (velvetleaf; [2]): 70
- Velvetleaf plant response rating (velvetleaf; [6]): 60
- Plant response rating, Velvetleaf (velvetleaf; [5]): 80
- Plant response rating, Blackgrass (blackgrass): 70
- Blackgrass plant response rating (blackgrass): 10
- Plant response rating, Wheat (wheat): 10
- Wheat plant response rating (wheat): 0
- Plant response rating, Oat, Wild (wild oat): 30
- Oat, Wild plant response rating (wild oat): 10
- Sedge, Umbrella plant response rating [1]: 80

SMILES: CCN1CCc2c(NC(=O)c3cc(C(C)(C)C)nn3CC)cccc2C1=O [Compound 63]
- Plant response rating, Barnyardgrass (barnyardgrass; [2]): 20
- Barnyardgrass plant response rating (barnyardgrass; [3]): 100
- Barnyardgrass plant response rating (barnyardgrass; [4]): 10
- Plant response rating, Barnyardgrass (barnyardgrass; [5]): 60
- Plant response rating, Surinam Grass (Surinam grass; [2]): 20
- Surinam Grass plant response rating (Surinam grass; [6]): 10
- Plant response rating, Surinam Grass (Surinam grass; [5]): 20
- Plant response rating, Cocklebur (cocklebur; [2]): 70
- Cocklebur plant response rating (cocklebur; [3]): 10
- Cocklebur plant response rating (cocklebur; [4]): 60
- Plant response rating, Cocklebur (cocklebur; [5]): 0
- Plant response rating, Corn (corn; [2]): 20
- Corn plant response rating (corn; [3]): 30
- Corn plant response rating (corn; [4]): 20
- Plant response rating, Corn (corn; [5]): 0
- Plant response rating, Crabgrass, Large (large crabgrass; [2]): 20
- Crabgrass, Large plant response rating (large crabgrass; [3]): 100
- Crabgrass, Large plant response rating (large crabgrass; [4]): 10
- Plant response rating, Crabgrass, Large (large crabgrass; [5]): 70
- Plant response rating, Foxtail, Giant (giant foxtail; [2]): 20
- Foxtail, Giant plant response rating (giant foxtail; [3]): 100
- Foxtail, Giant plant response rating (giant foxtail; [4]): 10
- Plant response rating, Foxtail, Giant (giant foxtail; [5]): 60
- Plant response rating, Lambsquarters (lambsquarters; [2]): 80
- Lambsquarters plant response rating (lambsquarters; [6]): 80
- Plant response rating, Lambsquarters (lambsquarters; [5]): 90
- Plant response rating, Morningglory (morningglory; [2]): 20
- Morningglory plant response rating (morningglory; [6]): 20
- Plant response rating, Morningglory (morningglory; [5]): 0
- Plant response rating, Pigweed (pigweed; [2]): 70
- Pigweed plant response rating (pigweed; [6]): 40
- Plant response rating, Pigweed (pigweed; [5]): 100
- Plant response rating, Velvetleaf (velvetleaf; [2]): 50
- Velvetleaf plant response rating (velvetleaf; [6]): 40
- Plant response rating, Velvetleaf (velvetleaf; [5]): 10
- Plant response rating, Blackgrass (blackgrass): 20
- Blackgrass plant response rating (blackgrass): 10
- Plant response rating, Wheat (wheat): 10
- Wheat plant response rating (wheat): 10
- Plant response rating, Oat, Wild (wild oat): 30
- Oat, Wild plant response rating (wild oat): 20
- Sedge, Umbrella plant response rating [1]: 100
